Laboratory results from patent publication US20230382919A1, “OXA- IBOGAINE INSPIRED ANALOGUES FOR TREATMENT OF NEUROLOGICAL AND PSYCHIATRIC DISORDERS” (The Trustees of Columbia University in the City of New York, priority 2021, published 2023).
Like-named read-outs stand apart in the source and are kept apart here.

How the values were obtained:
[1] = target: KOR (Rattus norvegicus (Rat), UniProt P34975); test: KOR agonist (cAMP) assay, CHO cells (commercial); type: cell-based
Text: (§1) Potency (IC50 and EC50) and efficacy values for hERG, rKOR-CHO, hMOR-CHO, h5-HT2A-HEK, h5-HT2B-CHO, h5-HT2C HEK were obtained by screening the selected compounds via commercially available assay services.

[2] = target: 5-HT2B (Homo sapiens (Human), UniProt P41595); test: 5-HT2B agonist (IP1) assay, CHO cells (commercial); type: cell-based; conditions: Table 2; for Emax at 10 µM: CHO, read-out: % of control agonist maximal response (5-HT2B); for EC50: IP1 agonist assay
Sequence of 5-HT2B (P41595 whole entry): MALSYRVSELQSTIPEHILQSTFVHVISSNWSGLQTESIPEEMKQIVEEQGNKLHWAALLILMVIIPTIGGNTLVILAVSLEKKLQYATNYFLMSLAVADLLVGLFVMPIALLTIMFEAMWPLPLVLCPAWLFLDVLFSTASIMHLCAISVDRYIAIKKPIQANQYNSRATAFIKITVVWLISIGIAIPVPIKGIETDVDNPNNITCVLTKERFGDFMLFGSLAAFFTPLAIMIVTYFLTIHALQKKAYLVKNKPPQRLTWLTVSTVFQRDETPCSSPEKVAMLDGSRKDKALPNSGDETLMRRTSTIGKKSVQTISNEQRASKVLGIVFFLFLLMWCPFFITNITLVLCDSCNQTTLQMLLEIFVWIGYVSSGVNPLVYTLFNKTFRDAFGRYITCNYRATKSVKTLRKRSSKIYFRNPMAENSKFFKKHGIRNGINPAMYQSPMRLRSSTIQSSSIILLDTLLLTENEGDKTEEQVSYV
Text: as §1

[3] = target: 5-HT2A (Homo sapiens (Human), UniProt P28223); test: 5-HT2A agonist (IP1) assay, HEK-293 cells (commercial); type: cell-based; conditions: Table 2; for Emax at 10 µM: HEK293, read-out: % of control agonist maximal response (5-HT2A); for EC50: IP1 agonist assay
Text: as §1

[4] = target: 5-HT2C (Homo sapiens (Human), UniProt P28335); test: 5-HT2C agonist (IP1) assay, HEK-293 cells (commercial); type: cell-based; conditions: Table 2; for Emax at 10 µM: HEK293, read-out: % of control agonist maximal response (5-HT2C); for EC50: IP1 agonist assay
Sequence of 5-HT2C (P28335 whole entry, looked up): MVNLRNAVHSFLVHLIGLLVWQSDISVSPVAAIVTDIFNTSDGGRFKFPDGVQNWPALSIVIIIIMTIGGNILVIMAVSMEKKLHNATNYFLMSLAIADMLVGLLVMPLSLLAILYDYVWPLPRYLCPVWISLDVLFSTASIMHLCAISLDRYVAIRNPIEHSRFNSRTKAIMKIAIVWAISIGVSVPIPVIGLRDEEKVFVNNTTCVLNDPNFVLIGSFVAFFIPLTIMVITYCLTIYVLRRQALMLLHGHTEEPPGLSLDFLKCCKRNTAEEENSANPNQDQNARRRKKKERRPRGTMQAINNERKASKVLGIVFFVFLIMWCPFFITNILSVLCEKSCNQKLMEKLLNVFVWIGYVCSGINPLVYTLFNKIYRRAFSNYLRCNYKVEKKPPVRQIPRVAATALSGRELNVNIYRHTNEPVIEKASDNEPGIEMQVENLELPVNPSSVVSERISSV
Text: as §1

[5] = target: hSERT (Homo sapiens (Human), UniProt P31645); test: hSERT fluorometric screening assay (APP+ uptake, hSERT-HEK cells); type: cell-based; conditions: average ± SEM, n ≥ 4; read-out: IC50 SERT [μM ± SEM]
Description: (§2) Inhibition assays of transporters (hSERT and rVMAT2) were performed according to the following protocol.
(§3) Stably transfected hSERT-HEK and rVMAT2-HEK cellular cultures were maintained in Dulbecco's Minimal Essential Medium (DMEM) with GlutaMAX (Gibco) with the following additions: 10% (v/v) Fetal Bovine Serum (FBS, Atlanta Biologicals), 100 U/mL Penicillin (Gibco), and 10 μg/mL Streptomycin (Gibco). With regards to the former cell lineage, an additional ingredient, 500 μg/mL Geneticin (G418) (Gibco) was included to preserve the respective transgene.
(§4) For both hSERT and rVMAT2 screening experiments, respective singly transfected cells were seeded at a density of 0.09×10^6 cells/well in poly-D-Lysine (Alamanda Polymers, Inc.) coated white solid-bottom 96-well plates (Costar). Growth was permitted for approximately 44 hours in said aqueous media and at an incubation environment of 37° C. and 5% Carbon Dioxide. At the beginning of the experiment, the cellular growth solution was aspirated, and individual cells were rinsed with 150 μL of 1×Dulbecco's Phosphate Buffered Saline (PBS; HyClone). 63 μL of Experimental Media (consisting of the following contents: DMEM without phenol red but with 4.5 g/L of D-Glucose (Gibco), 1% (v/v) FBS (Atlanta Biologicals), 100 U/mL Penicillin (Gibco), and 10 μg/mL Streptomycin (Gibco)) with 2×tiered concentrations of inhibitor (or DMSO, the vehicle of these experiments) were added to the respective wells. Control inhibitors used in these studies include Imipramine for hSERT experiments, and Reserpine for rVMAT2 experiments (Eiden, L. E. and Weihe, E. 2011; Sette, M. et al. 1983). At the conclusion of the pre-incubation period (60 minutes for hSERT experiments and 30 minutes for rVMAT2 experiments), 63 μL of Experimental Media containing 2×various concentrations of tested inhibitor (or vehicle) along with a specified amount of fluorescent substrate, APP^+ (Karpowicz, R. J. et al 2013) (final concentration: 1.1 μM for hSERT experiments) or FFN206 (Hu, G. et al. 2013) (final concentration: 0.75 μM for rVMAT2 experiments) were added to the present solution contained within the wells. […] A final solution of 120 μL of PBS is finally added to all corresponding wells for cell maintenance before undergoing fluorescence uptake reading by a BioTek H1MF plate reader. […]
(§5) Numerical analysis of the collected experimental data preceded as accordingly. Respective inhibitor values were first subtracted from vehicular values to quantify the respective fluorescence uptake. This metric was then analyzed using the dose-response-inhibitor nonlinear curve fitting model ([inhibitor] vs response (three parameters)) as supplied by GraphPad Prism 8 software. […]

[6] = target: rVMAT2 (Rattus norvegicus (Rat), UniProt Q01827); test: rVMAT2 fluorometric screening assay (FFN206 uptake, rVMAT2-HEK cells); type: cell-based; conditions: average ± SEM, n ≥ 4; read-out: IC50 VMAT2 [μM ± SEM]
Sequence of rVMAT2 (Q01827 whole entry): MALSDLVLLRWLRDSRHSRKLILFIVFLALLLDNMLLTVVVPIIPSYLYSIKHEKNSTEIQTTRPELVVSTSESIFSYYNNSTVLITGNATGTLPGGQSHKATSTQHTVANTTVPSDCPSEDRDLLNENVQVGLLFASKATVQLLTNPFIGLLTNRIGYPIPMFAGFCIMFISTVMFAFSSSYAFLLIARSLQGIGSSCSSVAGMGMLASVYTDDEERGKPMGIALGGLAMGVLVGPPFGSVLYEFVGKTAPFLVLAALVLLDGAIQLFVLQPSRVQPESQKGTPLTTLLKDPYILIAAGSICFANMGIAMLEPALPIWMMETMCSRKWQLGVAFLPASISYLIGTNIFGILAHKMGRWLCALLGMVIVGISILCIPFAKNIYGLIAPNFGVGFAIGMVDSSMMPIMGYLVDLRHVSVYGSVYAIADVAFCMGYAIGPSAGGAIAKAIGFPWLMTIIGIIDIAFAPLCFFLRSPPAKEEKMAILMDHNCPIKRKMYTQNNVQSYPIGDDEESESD
Description: as §2, §3, §4, §5

[7] = target: hERG (Homo sapiens (Human), UniProt Q12809); test: hERG radioligand ([3H]Dofetilide) displacement binding assay (commercial); conditions: Table 2
Sequence of hERG (Q12809 whole entry): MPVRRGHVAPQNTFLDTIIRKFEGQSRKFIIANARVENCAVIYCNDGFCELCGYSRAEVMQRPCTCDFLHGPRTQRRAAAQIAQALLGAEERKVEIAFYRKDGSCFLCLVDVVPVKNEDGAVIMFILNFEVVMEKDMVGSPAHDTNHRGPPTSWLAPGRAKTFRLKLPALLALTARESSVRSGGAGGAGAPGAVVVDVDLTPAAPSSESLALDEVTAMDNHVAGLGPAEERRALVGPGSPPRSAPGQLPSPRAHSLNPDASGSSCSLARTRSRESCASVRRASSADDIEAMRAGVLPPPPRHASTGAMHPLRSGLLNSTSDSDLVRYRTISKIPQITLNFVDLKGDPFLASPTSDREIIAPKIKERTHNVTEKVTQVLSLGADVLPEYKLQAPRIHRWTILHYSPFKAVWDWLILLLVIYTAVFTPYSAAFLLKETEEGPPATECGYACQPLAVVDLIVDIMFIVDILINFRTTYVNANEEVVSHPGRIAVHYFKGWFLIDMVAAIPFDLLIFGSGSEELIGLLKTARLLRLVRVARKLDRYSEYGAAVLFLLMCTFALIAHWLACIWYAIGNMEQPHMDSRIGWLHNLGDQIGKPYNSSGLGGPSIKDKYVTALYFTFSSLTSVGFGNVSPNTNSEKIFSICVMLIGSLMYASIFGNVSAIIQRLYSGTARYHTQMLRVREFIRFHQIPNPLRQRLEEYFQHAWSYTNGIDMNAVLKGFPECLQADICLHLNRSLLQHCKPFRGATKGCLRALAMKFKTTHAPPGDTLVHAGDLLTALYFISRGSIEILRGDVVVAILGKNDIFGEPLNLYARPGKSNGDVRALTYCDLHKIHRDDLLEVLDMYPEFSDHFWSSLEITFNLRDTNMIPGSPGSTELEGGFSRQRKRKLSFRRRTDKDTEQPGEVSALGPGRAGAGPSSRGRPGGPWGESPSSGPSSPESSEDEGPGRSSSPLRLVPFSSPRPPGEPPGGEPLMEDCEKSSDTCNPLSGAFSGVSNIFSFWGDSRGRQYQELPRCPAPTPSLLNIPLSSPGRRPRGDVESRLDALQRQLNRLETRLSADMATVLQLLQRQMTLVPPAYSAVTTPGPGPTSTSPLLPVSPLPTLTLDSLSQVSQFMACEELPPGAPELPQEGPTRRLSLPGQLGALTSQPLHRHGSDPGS
Text: as §1

[8] = target: mouse DOR (mDOR) (Mus musculus (Mouse), UniProt P32300); test: G-protein BRET functional opioid assay, DOR; type: cell-based; conditions: for Emax: normalized to DPDPE, read-out: % of control agonist maximal response (DOR)
Description: (§6) HEK-293T cells were obtained from the American Type Culture Collection (Rockville, MD) and were cultured in a 5% CO2 atmosphere at 37° C. in Dulbecco's Modified Eagle Medium (high glucose #11965; Life Technologies Corp.; Grand Island, NY) supplemented with 10% FBS (Premium Select, Atlanta Biologicals; Atlanta, GA), 100 U/mL penicillin, and 100 μg/mL streptomycin (#15140, Life Technologies). DNA Constructs: The mouse MOR (mMOR), the mouse DOR (mDOR) and the rat KOR (rKOR) were provided by Dr Lakshmi Devi at Mount Sinai School of Medicine. The G proteins used included untagged GαoB with Renilla luciferase 8 (RLuc8) inserted at position 91 (GαoB-RLuc8); Gβ1 (β1); Gγ2 which was fused to the full-length mVenus at its N-terminus via the amino acid linker GSAGT (mVenus-γ2). All constructs were sequence confirmed prior to use in experiments.
(§7) Transfection: The following cDNA amounts were transfected into HEK-293T cells (5×10^6 cells/plate) in 10-cm dishes using polyethylenimine (PEI) in a 1:1 ratio (diluted in Opti-MEM, Life Technologies): 2.5 μg MOR/DOR/KOR, 0.125 μg GαoBRLuc8, 6.25 μg (1, 6.25 μg mVenus-γ2. Cells were maintained in the HEK-293T media described above. After 24 hours the media was changed, and the experiment was performed 24 hours later (48 hours after transfection). BRET: Transfected cells were dissociated and re-suspended in phosphate-buffered saline (PBS). Approximately 200,000 cells/well were added to a black-framed, white-well, 96-well plate (#60050; Perkin Elmer; Waltham, MA). The microplate was centrifuged and the cells were resuspended in PBS. After 5 minutes, 5 μM of the luciferase substrate coelenterazine H was added to each well. After 5 minutes, ligands were added and the BRET signal was measured 5 minutes later on a PHERAstar FS plate reader. The BRET signal was quantified by calculating the ratio of the light emitted by the energy acceptor, mVenus (510-540 nm), over the light emitted by the energy donor, RLuc8 (485 nm). This drug-induced BRET signal was normalized using the Emax of a known agonist (DAMGO, DPDPE or U-50,488) as the maximal response at MOR/DOR/KOR. Data were analyzed using the dose-response-stimulation nonlinear curve fitting model (log[agonist] vs. response (three parameters)).

[9] = target: rat KOR (rKOR) (Rattus norvegicus (Rat), UniProt P34975); test: G-protein BRET functional opioid assay, KOR; type: cell-based; conditions: for Emax: normalized to U-50,488, read-out: % of control agonist maximal response (KOR)
Description: as §6, §7

[10] = target: mouse MOR (mMOR) (Mus musculus (Mouse), UniProt P42866); test: G-protein BRET functional opioid assay, MOR; type: cell-based; conditions: for Emax: normalized to DAMGO, read-out: % of control agonist maximal response (MOR)
Sequence of mouse MOR (mMOR) (P42866 whole entry, looked up): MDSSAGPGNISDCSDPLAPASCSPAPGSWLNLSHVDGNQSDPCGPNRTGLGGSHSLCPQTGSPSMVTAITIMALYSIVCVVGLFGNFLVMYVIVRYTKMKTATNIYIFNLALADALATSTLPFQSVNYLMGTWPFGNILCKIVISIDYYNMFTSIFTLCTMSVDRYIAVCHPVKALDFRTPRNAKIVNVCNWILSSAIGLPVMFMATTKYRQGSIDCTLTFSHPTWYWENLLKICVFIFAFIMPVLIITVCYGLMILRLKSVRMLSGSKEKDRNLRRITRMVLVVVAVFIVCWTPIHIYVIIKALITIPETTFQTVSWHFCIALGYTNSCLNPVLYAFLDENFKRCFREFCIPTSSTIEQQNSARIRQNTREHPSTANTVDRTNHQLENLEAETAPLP
Description: as §6, §7

[11] = CHO, Table 2, read-out: % of control agonist maximal response (KOR)
[12] = Table 2, cAMP agonist assay, rat KOR, CHO
[13] = CHO, Table 5, CAMP Assay, read-out: % of control agonist maximal response (KOR)

Work on `c1ccc2c3c(oc2c1)CCNCC3` [drawing 161] yielded an Emax at 10 µM [1, 11] of 36%, an EC50 [1, 12] of about 1200 nM and an Emax at 10 µM [2] of 20%. It also gave an EC50 [2] of over 10 µM, an Emax at 10 µM [3] of 77% and an EC50 [3] of about 1000 nM. For the same compound, the Emax at 10 µM [4] was 90% and the EC50 [4] was under 100 nM.
In the case of `c1ccc2c3c(oc2c1)CCCNC3` [drawing 167], the IC50 [5] is reported as 11 ± 2.9 µM and the IC50 [6] is reported as 0.061 ± 0.01 µM.
In the case of `CN1CCc2oc3ccccc3c2CC1` [drawing 162], the IC50 ([7]; [3H]Dofetilide displacement, HEK-293) is reported as over 10 µM, the inhibition at 10 µM ([7]; human, HEK-293 cells expressing hERG, probe [3H]Dofetilide, at 10 μM, read-out: % inhibition of control specific binding (hERG)) is reported as 11% and the Emax at 10 µM [1, 11] is reported as 36%. For the same compound, the EC50 [1, 12] was about 4200 nM, the Emax at 10 µM [2] was 4% and the EC50 [2] was over 10 µM. The Emax at 10 µM [3] was 26%, the EC50 [3] was over 10000 nM and the Emax at 10 µM [4] was 99%. For the same compound, the EC50 [4] was about 200 nM.
`Oc1ccc2oc3c(c2c1)CCNCC3` [drawing 172] showed an Emax at 10 µM [1, 13] of under 0% and an EC50 ([1]; Table 5, CAMP Assay) of over 10000 nM.
`c1ccc2c3c(oc2c1)CCNCC3` [drawing 165] gave an IC50 [5] of 0.45 ± 0.06 µM and an IC50 [6] of 1.4 ± 0.23 µM.
With `CN1CCc2oc3ccccc3c2CC1` [drawing 166] the IC50 [5] was 1.4 ± 0.3 µM and the IC50 [6] was 4.9 ± 0.94 µM.
In the case of `CC1Cc2oc3ccc(O)cc3c2CCN1C` (stereo not shown), the EC50 [8] is reported as 1200 nM, the Emax [8] is reported as 66% and the EC50 [9] is reported as 79 nM. For the same compound, the Emax [9] was 53%, the EC50 [10] was 320 nM and the Emax [10] was 46%.
With `CC1Cc2oc3ccc(O)cc3c2CCN1` (stereo not shown) [drawing 173] the EC50 [8] was 620 nM, the Emax [8] was 45% and the EC50 [9] was 130 nM. The Emax [9] was 36%, the EC50 [10] was 200 nM and the Emax [10] was 16%. It also gave an Emax [1, 13] of 96% and an EC50 ([1]; Table 5, CAMP Assay) of 60 nM.
